Results as given in patent US20150344540A1, “NOVEL GLP-1 RECEPTOR AGONISTS WITH CHOLESTEROL EFFLUX ACTIVITY” (NOVO NORDISK A/S, priority 2012, published 2015).
pEC50: −log10 of the molar value. Like-named read-outs stand apart in the source and are kept apart here. Where a SMILES comes first, the peptide text is derived from it. [ ]: non-standard residue; d: D form. Aib = CC(C)(N)C(=O)O

How the values were obtained:
[1] = test system: Mouse monocyte/macrophage cell line, RAW 264.7; test: Cholesterol efflux assay (3H-cholesterol, macrophage cell line); assay type: cell-based; conditions: RAW 264.7, 4 hrs incubation, 0.1% human serum albumin, ABCA1-mediated efflux
[2] = target: human GLP-1 receptor (Homo sapiens, UniProt P43220); test: Functional GLP-1 receptor assay, in vitro potency (CRE luciferase; whole cells); assay type: cell-based; conditions: BHK cells expressing human GLP-1 receptor
human GLP-1 receptor, sequence (P43220 24-463): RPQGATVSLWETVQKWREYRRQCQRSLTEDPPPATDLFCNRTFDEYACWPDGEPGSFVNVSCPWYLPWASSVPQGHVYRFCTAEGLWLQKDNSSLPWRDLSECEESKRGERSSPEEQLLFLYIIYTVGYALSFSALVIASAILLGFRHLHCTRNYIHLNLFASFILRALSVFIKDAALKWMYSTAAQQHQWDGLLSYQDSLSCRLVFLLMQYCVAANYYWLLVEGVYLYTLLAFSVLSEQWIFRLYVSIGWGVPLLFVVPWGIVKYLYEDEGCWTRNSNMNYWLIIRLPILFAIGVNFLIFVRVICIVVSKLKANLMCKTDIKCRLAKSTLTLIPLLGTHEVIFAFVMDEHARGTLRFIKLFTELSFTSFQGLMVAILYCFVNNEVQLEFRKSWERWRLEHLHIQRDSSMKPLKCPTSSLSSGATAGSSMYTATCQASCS

[3] = GLP1R CRE luc 1% HSA EC50 Mean Value, 1% HSA
[4] = 0% HSA, read-out: GLP1R CRE luc 0% HSA EC50 Mean Value

Row | pEC50 [2, 3] | pEC50 [2, 4] | SMILES | 4 h Cholesterol Efflux Emax [1]
1 | 9.98 | – | CC[C@H](C)[C@H](NC(=O)[C@H](Cc1ccccc1)NC(=O)[C@H](CC(C)C)NC(=O)[C@H](CCCCN)NC(=O)[C@@H](NC(=O)[C@H](C)NC(=O)[C@H](CCC(=O)O)NC(=O)CNC(=O)[C@H](CCC(=O)O)NC(=O)[C@H](CC(C)C)NC(=O)[C@H](Cc1ccc(O)cc1)NC(=O)[C@H](CO)NC(=O)[C@H](CO)NC(=O)[C@@H](NC(=O)[C@H](CC(=O)O)NC(=O)[C@H](CO)NC(=O)[C@@H](NC(=O)[C@H](Cc1ccccc1)NC(=O)[C@@H](NC(=O)CNC(=O)[C@H](CCC(=O)O)NC(=O)C(C)(C)NC(=O)[C@@H](N)Cc1c[nH]cn1)[C@@H](C)O)[C@@H](C)O)C(C)C)C(C)C)C(=O)N[C@@H](C)C(=O)N[C@@H](Cc1c[nH]c2ccccc12)C(=O)N[C@@H](CC(C)C)C(=O)N[C@H](C(=O)N[C@@H](CCC(=O)O)C(=O)N[C@@H](CCCCN)C(=O)NC(C)(C)C(=O)N[C@@H](CCCCN)C(=O)N[C@@H](CCC(=O)O)C(=O)N[C@@H](Cc1ccccc1)C(=O)N[C@@H](CC(C)C)C(N)=O)C(C)C [Compound 28, [Aib8,Glu23,Val25,Leu27,Glu34,Lys35,Aib36,Lys37]-GLP-1-(7-37)-peptidyl-Glu-Phe-Leu amide] (H-H[Aib]EGTFTSDVSSYLEGEAVKLFIAWLVEK[Aib]KEFL-NH2) | 78%
2 | 10.89 | 10.47 | CC[C@H](C)[C@H](NC(=O)[C@H](Cc1ccccc1)NC(=O)[C@H](CCC(=O)O)NC(=O)[C@H](CCCCN)NC(=O)[C@@H](NC(=O)[C@H](C)NC(=O)[C@H](CCC(=O)O)NC(=O)CNC(=O)[C@H](CCC(=O)O)NC(=O)[C@H](CC(C)C)NC(=O)[C@H](Cc1ccc(O)cc1)NC(=O)[C@H](CO)NC(=O)[C@H](CO)NC(=O)[C@@H](NC(=O)[C@H](CC(=O)O)NC(=O)[C@H](CO)NC(=O)[C@@H](NC(=O)[C@H](Cc1ccccc1)NC(=O)[C@@H](NC(=O)CNC(=O)[C@H](CCC(=O)O)NC(=O)C(C)(C)NC(=O)[C@@H](N)Cc1c[nH]cn1)[C@@H](C)O)[C@@H](C)O)C(C)C)C(C)C)C(=O)N[C@@H](C)C(=O)N[C@@H](Cc1c[nH]c2ccccc12)C(=O)N[C@@H](CC(C)C)C(=O)N[C@H](C(=O)N[C@@H](CCC(=O)O)C(=O)NCC(=O)NC(C)(C)C(=O)N[C@@H](CCCCN)C(=O)N[C@@H](CCC(=O)O)C(=O)N[C@@H](Cc1ccccc1)C(=O)N[C@@H](CC(C)C)C(N)=O)C(C)C [Compound 30, [Aib8,Glu23,Val25,Glu34,Aib36,Lys37]-GLP-1-(7-37)-peptidyl-Glu-Phe-Leu amide] (H-H[Aib]EGTFTSDVSSYLEGEAVKEFIAWLVEG[Aib]KEFL-NH2) | 75%
3 | 10.21 | – | CC[C@H](C)[C@H](NC(=O)[C@H](Cc1ccccc1)NC(=O)[C@H](CCC(=O)O)NC(=O)[C@H](CCCCN)NC(=O)[C@@H](NC(=O)[C@H](C)NC(=O)[C@H](CCC(=O)O)NC(=O)CNC(=O)[C@H](CCC(=O)O)NC(=O)[C@H](CC(C)C)NC(=O)[C@H](Cc1ccc(O)cc1)NC(=O)[C@H](CO)NC(=O)[C@H](CO)NC(=O)[C@@H](NC(=O)[C@H](CC(=O)O)NC(=O)[C@H](CO)NC(=O)[C@@H](NC(=O)[C@H](Cc1ccccc1)NC(=O)[C@@H](NC(=O)CNC(=O)[C@H](CCC(=O)O)NC(=O)C(C)(C)NC(=O)[C@@H](N)Cc1c[nH]cn1)[C@@H](C)O)[C@@H](C)O)C(C)C)C(C)C)C(=O)N[C@@H](C)C(=O)N[C@@H](Cc1c[nH]c2ccccc12)C(=O)N[C@@H](CC(C)C)C(=O)N[C@H](C(=O)N[C@@H](CCC(=O)O)C(=O)N[C@@H](CCCCN)C(=O)NC(C)(C)C(=O)N[C@@H](CCCCN)C(=O)N[C@@H](Cc1c[nH]cn1)C(=O)N[C@@H](Cc1ccccc1)C(=O)N[C@@H](CC(C)C)C(N)=O)C(C)C [Compound 31, [Aib8,Glu23,Val25,Glu34,Lys35,Aib36,Lys37]-GLP-1-(7-37)-peptidyl-His-Phe-Leu amide] (H-H[Aib]EGTFTSDVSSYLEGEAVKEFIAWLVEK[Aib]KHFL-NH2) | 84%
4 | 10.49 | – | CC[C@H](C)[C@H](NC(=O)[C@H](Cc1ccccc1)NC(=O)[C@H](CCC(=O)O)NC(=O)[C@H](CCCNC(=N)N)NC(=O)[C@@H](NC(=O)[C@H](C)NC(=O)[C@H](CCC(=O)O)NC(=O)[C@H](CCC(=O)O)NC(=O)[C@H](CCC(=O)O)NC(=O)[C@H](CCSC)NC(=O)[C@H](CCC(N)=O)NC(=O)[C@H](CCCCN)NC(=O)[C@H](CO)NC(=O)[C@H](CC(C)C)NC(=O)[C@H](CC(=O)O)NC(=O)[C@H](CO)NC(=O)[C@@H](NC(=O)[C@H](Cc1ccccc1)NC(=O)[C@@H](NC(=O)CNC(=O)[C@H](CCC(=O)O)NC(=O)C(C)(C)NC(=O)[C@@H](N)Cc1c[nH]cn1)[C@@H](C)O)[C@@H](C)O)C(C)C)C(=O)N[C@@H](CCC(=O)O)C(=O)N[C@@H](Cc1c[nH]c2ccccc12)C(=O)N[C@@H](CC(C)C)C(=O)N[C@@H](CCCCN)C(=O)N[C@@H](CC(N)=O)C(=O)NCC(=O)NC(C)(C)C(=O)N[C@@H](CC(C)C)C(=O)N[C@@H](CCC(=O)O)C(=O)N[C@@H](Cc1ccccc1)C(=O)N[C@@H](CC(C)C)C(=O)N[C@@H](CCC(=O)O)C(=O)N[C@@H](CC(C)C)C(=O)N[C@@H](CC(C)C)C(N)=O [Compound 34, [Aib2,Glu21,Aib30,Leu31,Glu32,Phe33,Leu34,Glu35,Leu36,Leu371-Exendin-4-(1-37)-peptide amide] (H-H[Aib]EGTFTSDLSKQMEEEAVREFIEWLKNG[Aib]LEFLELL-NH2; N-terminus assumed) | 94%
5 | 10.49 | – | CC[C@H](C)[C@H](NC(=O)[C@H](Cc1ccccc1)NC(=O)[C@H](CCC(=O)O)NC(=O)[C@H](CCCNC(=N)N)NC(=O)[C@@H](NC(=O)[C@H](C)NC(=O)[C@H](CCC(=O)O)NC(=O)[C@H](CCC(=O)O)NC(=O)[C@H](CCC(=O)O)NC(=O)[C@H](CCSC)NC(=O)[C@H](CCC(N)=O)NC(=O)[C@H](CCCCN)NC(=O)[C@H](CO)NC(=O)[C@H](CC(C)C)NC(=O)[C@H](CC(=O)O)NC(=O)[C@H](CO)NC(=O)[C@@H](NC(=O)[C@H](Cc1ccccc1)NC(=O)[C@@H](NC(=O)CNC(=O)[C@H](CCC(=O)O)NC(=O)C(C)(C)NC(=O)[C@@H](N)Cc1c[nH]cn1)[C@@H](C)O)[C@@H](C)O)C(C)C)C(=O)N[C@@H](CCC(=O)O)C(=O)N[C@@H](Cc1c[nH]c2ccccc12)C(=O)N[C@@H](CC(C)C)C(=O)N[C@@H](CCCCN)C(=O)N[C@@H](CC(N)=O)C(=O)N[C@@H](CCCCN)C(=O)NC(C)(C)C(=O)N1CCC[C@H]1C(=O)N[C@@H](CCC(=O)O)C(=O)N[C@@H](Cc1ccccc1)C(=O)N[C@@H](CC(C)C)C(=O)N[C@@H](CCC(=O)O)C(=O)N[C@@H](CC(C)C)C(=O)N[C@@H](CC(C)C)C(N)=O [Compound 35, [Aib2,Glu21,Lys29,Aib30,Glu32,Phe33,Leu34,Glu35,Leu36,Leu371-Exendin-4-(1-37)-peptide amide] (H-H[Aib]EGTFTSDLSKQMEEEAVREFIEWLKNK[Aib]PEFLELL-NH2; N-terminus assumed) | 48%
6 | 10.96 | 10.64 | CC[C@H](C)[C@H](NC(=O)[C@H](Cc1ccccc1)NC(=O)[C@H](CCC(=O)O)NC(=O)[C@H](CCCNC(=N)N)NC(=O)[C@@H](NC(=O)[C@H](C)NC(=O)[C@H](CCC(=O)O)NC(=O)[C@H](CCC(=O)O)NC(=O)[C@H](CCC(=O)O)NC(=O)[C@H](CCSC)NC(=O)[C@H](CCC(N)=O)NC(=O)[C@H](CCCCN)NC(=O)[C@H](CO)NC(=O)[C@H](CC(C)C)NC(=O)[C@H](CC(=O)O)NC(=O)[C@H](CO)NC(=O)[C@@H](NC(=O)[C@H](Cc1ccccc1)NC(=O)[C@@H](NC(=O)CNC(=O)[C@H](CCC(=O)O)NC(=O)C(C)(C)NC(=O)[C@@H](N)Cc1c[nH]cn1)[C@@H](C)O)[C@@H](C)O)C(C)C)C(=O)N[C@@H](CCC(=O)O)C(=O)N[C@@H](Cc1c[nH]c2ccccc12)C(=O)N[C@@H](CC(C)C)C(=O)N[C@@H](CCCCN)C(=O)N[C@@H](CC(N)=O)C(=O)N[C@@H](CCCCN)C(=O)NC(C)(C)C(=O)N[C@@H](CC(C)C)C(=O)N[C@@H](CCC(=O)O)C(=O)N[C@@H](CO)C(=O)N[C@@H](CC(C)C)C(=O)N[C@@H](CCC(=O)O)C(=O)N[C@@H](CC(C)C)C(=O)N[C@@H](CC(C)C)C(N)=O [Compound 37, [Aib2,Glu21,Lys29,Aib30,Leu31,Glu32,Leu34,Glu35,Leu36,Leu371-Exendin-4-(1-37)-peptide amide] (H-H[Aib]EGTFTSDLSKQMEEEAVREFIEWLKNK[Aib]LESLELL-NH2; N-terminus assumed) | 102%
7 | 10.92 | – | CC[C@H](C)[C@H](NC(=O)[C@H](Cc1ccccc1)NC(=O)[C@H](CCC(=O)O)NC(=O)[C@H](CCCNC(=N)N)NC(=O)[C@@H](NC(=O)[C@H](C)NC(=O)[C@H](CCC(=O)O)NC(=O)[C@H](CCC(=O)O)NC(=O)[C@H](CCC(=O)O)NC(=O)[C@H](CCSC)NC(=O)[C@H](CCC(N)=O)NC(=O)[C@H](CCCCN)NC(=O)[C@H](CO)NC(=O)[C@H](CC(C)C)NC(=O)[C@H](CC(=O)O)NC(=O)[C@H](CO)NC(=O)[C@@H](NC(=O)[C@H](Cc1ccccc1)NC(=O)[C@@H](NC(=O)CNC(=O)[C@H](CCC(=O)O)NC(=O)C(C)(C)NC(=O)[C@@H](N)Cc1c[nH]cn1)[C@@H](C)O)[C@@H](C)O)C(C)C)C(=O)N[C@@H](CCC(=O)O)C(=O)N[C@@H](Cc1c[nH]c2ccccc12)C(=O)N[C@@H](CC(C)C)C(=O)N[C@@H](CCCCN)C(=O)N[C@@H](CC(N)=O)C(=O)N[C@@H](CCCCN)C(=O)NC(C)(C)C(=O)N[C@@H](CC(C)C)C(=O)N[C@@H](CCC(=O)O)C(=O)N[C@@H](Cc1ccccc1)C(=O)NCC(=O)N[C@@H](CCC(=O)O)C(=O)N[C@@H](CC(C)C)C(=O)N[C@@H](CC(C)C)C(N)=O [Compound 38, [Aib2,Glu21,Lys29,Aib30,Leu31,Glu32,Phe33,Glu35,Leu36,Leu371-Exendin-4-(1-37)-peptide amide] (H-H[Aib]EGTFTSDLSKQMEEEAVREFIEWLKNK[Aib]LEFGELL-NH2; N-terminus assumed) | 82%
